What was measured:
AMARE [1] = assay: Herbicidal pre-emergence action 2a (greenhouse pots, visual scoring); type: in vivo, Amaranthus retroflexus; settings: dosage 320 g/ha, visual scoring after about 3 weeks vs untreated controls
Description: (§1) [table] a) Seeds of monocotyledonous and dicotyledonous weed plants and crop plants are placed in plastic or organic plant pots and covered with soil. The compounds of the invention, formulated in the form of wettable powders (WP) or as emulsion concentrates (EC), are then applied onto the surface of the covering soil as aqueous suspension or emulsion with addition of 0.5% additive at a water application rate of 600 1/ha (converted). After the treatment, the pots are placed in a greenhouse and kept under good growth conditions for the trial plants. After about 3 weeks, the effect of the preparations is scored visually in comparison with untreated controls as percentages. For example, 100% activity=the plants have died, 0% activity=like control plants. Tables B1 to B15 below show the effects of selected compounds of the general formula (I) according to Tables 1 and 2 on various harmful plants and an application rate corresponding to 320 g/ha and/or 80 g/ha, which were obtained by the experimental procedure mentioned above.

MATIN [2] = assay: as above; type: in vivo, Matricaria inodora; settings: dosage 320 g/ha, visual scoring after about 3 weeks vs untreated controls
Description: as §1

MATIN [3] = assay: Herbicidal post-emergence action 1a (greenhouse pots, visual rating); type: in vivo, Matricaria inodora; settings: dosage 320 g/ha, visual rating about 3 weeks after treatment
Method: (§2) [table] a) Seeds of monocotyledonous and dicotyledonous weeds and crop plants are placed in sandy loam in plastic or organic plant pots, covered with soil and cultivated in a greenhouse under controlled growth conditions. 2 to 3 weeks after sowing, the test plants are treated at the one-leaf stage. The compounds of the invention, formulated in the form of wettable powders (WP) or as emulsion concentrates (EC), are then sprayed onto the green parts of the plants as aqueous suspension or emulsion with addition of 0.5% additive at a water application rate of 600 1/ha (converted). After the test plants have been kept in the greenhouse under optimum growth conditions for about 3 weeks, the activity of the preparations is rated visually in comparison to untreated controls. For example, 100% activity=the plants have died, 0% activity=like control plants. Tables A1 to A15 below show the effects of selected compounds of the general formula (I) according to Tables 1 and 2 on various harmful plants and an application rate corresponding to 320 g/ha and/or 80 g/ha, which were obtained by the experimental procedure mentioned above.

ALOMY [4] = assay: as above; type: in vivo, Alopecurus myosuroides; settings: rated visually about 3 weeks after treatment, 100% = plants have died, 0% = like control plants
Method: as §2

VERPE [5] = assay: Herbicidal pre-emergence action 2a (greenhouse pots, visual scoring); type: in vivo, Veronica persica; settings: dosage 320 g/ha, visual scoring after about 3 weeks vs untreated controls
Description: as §1

SETVI [6] = assay: as above; type: in vivo, Setaria viridis; settings: dosage 320 g/ha, visual scoring after about 3 weeks vs untreated controls
Description: as §1

SETVI [7] = assay: Herbicidal post-emergence action 1a (greenhouse pots, visual rating); type: in vivo, Setaria viridis; settings: rated visually about 3 weeks after treatment, 100% = plants have died, 0% = like control plants
Method: as §2

ABUTH = assay: as above; type: in vivo, Abutilon theophrasti; settings: visual rating about 3 weeks after treatment
Method: as §2

AMARE [8] = assay: as above; type: in vivo, Amaranthus retroflexus; settings: visual rating about 3 weeks after treatment
Method: as §2

ECHCG = assay: as above; type: in vivo, Echinochloa crus-galli; settings: Dosage 320 g/ha; rated visually about 3 weeks after treatment; 100% = plants have died, 0% = like control plants
Method: as §2

ALOMY [9] = assay: Herbicidal pre-emergence action 2a (greenhouse pots, visual scoring); type: in vivo, Alopecurus myosuroides; settings: dosage 320 g/ha, visual scoring after about 3 weeks
Description: as §1

POLCO [10] = assay: Herbicidal post-emergence action 1a (greenhouse pots, visual rating); type: in vivo, Polygonum convolvulus; settings: visual rating about 3 weeks after treatment
Method: as §2

LOLRI [11] = assay: Herbicidal pre-emergence action 2a (greenhouse pots, visual scoring); type: in vivo, Lolium rigidum; settings: dosage 320 g/ha, visual scoring after about 3 weeks vs untreated controls
Description: as §1

LOLRI [12] = assay: Herbicidal post-emergence action 1a (greenhouse pots, visual rating); type: in vivo, Lolium rigidum; settings: Dosage 320 g/ha; rated visually about 3 weeks after treatment; 100% = plants have died, 0% = like control plants
Method: as §2

VERPE [13] = assay: as above; type: in vivo, Veronica persica; settings: visual rating about 3 weeks after treatment
Method: as §2

AVEFA [14] = assay: as above; type: in vivo, Avena fatua; settings: rated visually about 3 weeks after treatment, 100% = plants have died, 0% = like control plants
Method: as §2

POLCO [15] = assay: Herbicidal pre-emergence action 2a (greenhouse pots, visual scoring); type: in vivo, Polygonum convolvulus; settings: dosage 320 g/ha, visual scoring after about 3 weeks vs untreated controls
Description: as §1

AVEFA [16] = assay: as above; type: in vivo, Avena fatua; settings: dosage 320 g/ha, visual scoring after about 3 weeks
Description: as §1

CCOC(=O)COc1nn(-c2nccnc2F)c(-c2ccc(F)nc2)c1Br [Example I-76]
Pre-emergence action against AMARE in % (AMARE [1]): 90%
Pre-emergence action against MATIN in % (MATIN [2]): 90%

O=C(O)COc1nn(-c2cnccn2)c(-c2ccc(F)nc2)c1C1CC1 [Example I-83]
Post-emergence action against MATIN in % (MATIN [3]): 80%
Post-emergence action against ALOMY in % (ALOMY [4]; Dosage 80 g/ha): 80%
Post-emergence action against ALOMY in % (ALOMY [4]; Dosage 320 g/ha): 80%

COC(=O)[C@@H](C)Oc1nn(-c2cnccn2)c(-c2ccc(F)nc2)c1I [Example I-89]
Pre-emergence action against VERPE in % (VERPE [5]): 100%
Pre-emergence action against SETVI in % (SETVI [6]): 100%
Post-emergence action against SETVI in % (SETVI [7]; Dosage 320 g/ha): 90%
Post-emergence action against ABUTH in % (ABUTH; dosage 80 g/ha): 90%
Post-emergence action against ABUTH in % (ABUTH; dosage 320 g/ha): 90%
Post-emergence action against MATIN in % (MATIN [3]): 80%
Post-emergence action against AMARE in % (AMARE [8]; dosage 80 g/ha): 90%
Post-emergence action against AMARE in % (AMARE [8]; dosage 320 g/ha): 90%
Pre-emergence action against AMARE in % (AMARE [1]): 100%
Post-emergence action against ECHCG in % (ECHCG): 80%
Post-emergence action against ALOMY in % (ALOMY [4]; Dosage 80 g/ha): 80%
Post-emergence action against ALOMY in % (ALOMY [4]; Dosage 320 g/ha): 100%
Pre-emergence action against ALOMY in % (ALOMY [9]): 100%
Post-emergence action against POLCO in % (POLCO [10]; dosage 80 g/ha): 90%
Post-emergence action against POLCO in % (POLCO [10]; dosage 320 g/ha): 90%
Pre-emergence action against LOLRI in % (LOLRI [11]): 100%
Post-emergence action against LOLRI in % (LOLRI [12]): 100%
Post-emergence action against VERPE in % (VERPE [13]; dosage 80 g/ha): 80%
Post-emergence action against VERPE in % (VERPE [13]; dosage 320 g/ha): 90%
Post-emergence action against AVEFA in % (AVEFA [14]; Dosage 80 g/ha): 90%
Post-emergence action against AVEFA in % (AVEFA [14]; Dosage 320 g/ha): 100%

COC(=O)CNC(=O)[C@@H](C)Oc1nn(-c2cnccn2)c(-c2ccc(F)nc2)c1Br [II-03]
Pre-emergence action against VERPE in % (VERPE [5]): 100%
Pre-emergence action against SETVI in % (SETVI [6]): 100%
Post-emergence action against SETVI in % (SETVI [7]; Dosage 80 g/ha): 90%
Post-emergence action against SETVI in % (SETVI [7]; Dosage 320 g/ha): 90%
Post-emergence action against AMARE in % (AMARE [8]; dosage 320 g/ha): 90%
Pre-emergence action against AMARE in % (AMARE [1]): 100%
Post-emergence action against ECHCG in % (ECHCG): 80%
Pre-emergence action against POLCO in % (POLCO [15]): 90%
Post-emergence action against ALOMY in % (ALOMY [4]; Dosage 80 g/ha): 80%
Post-emergence action against ALOMY in % (ALOMY [4]; Dosage 320 g/ha): 90%
Pre-emergence action against ALOMY in % (ALOMY [9]): 100%
Post-emergence action against POLCO in % (POLCO [10]; dosage 320 g/ha): 80%
Pre-emergence action against LOLRI in % (LOLRI [11]): 100%
Post-emergence action against AVEFA in % (AVEFA [14]; Dosage 320 g/ha): 90%
Pre-emergence action against AVEFA in % (AVEFA [16]): 100%

— patent US20230167088A1, “1-PYRAZINYLPYRAZOLYL-3-OXYALKYL ACIDS AND THEIR DERIVATIVES, AND THEIR USE FOR CONTROL OF UNDESIRED PLANT GROWTH” (BAYER AKTIENGESELLSCHAFT, priority 2020, published 2023)
